Assay results published in US20260285880A1, “SUBSTITUTED DIHYDROTHIENOPYRIMIDINE COMPOUND, PREPARATION METHOD THEREFOR, AND USE THEREOF” (SHANGHAI YIDI BIOTECHNOLOGY CO., LTD., priority 2023, published 2026).

Experiments:
PDE4D2 = PDE4D2 (Homo sapiens, UniProt Q08499); assay: PDE4D2 enzyme experiment (AMP-Glo); conditions: read-out: PDE4D2 IC50 Binding; enzyme assay
Protocol: (§1) All compounds were dissolved in DMSO into 10 mM or 20 mM stock solutions. The compound to be tested was diluted with DMSO in a 3-fold gradient. 20 nL/well of the compound or a DMSO control was transferred to a 384-well plate by using Echo 550 instrument. The plate was sealed with a membrane and centrifuged for 1 minute. A 2× enzyme solution was prepared with an assay buffer, and 2 uL/well of the 2× enzyme solution was added, followed by equilibration at room temperature for 10 minutes. A 2× Cyclic-3′,5′-AMP substrate solution was prepared with an assay buffer, and 2 uL/well of the 2× substrate solution was added, followed by incubation at room temperature for 60 minutes. 4 μL of AMP-glo reagent was added, followed by incubation at room temperature for 60 minutes. 8 ul of an AMP detection solution was added, followed by incubation at room temperature for 60 minutes. An RLU value was read on Envision 2105 plate reader. The RLU value represents the concentration of the product AMP. Inhibition rate %=(1−(RLUpositive control−RLUcomnpound)/(RLUpositive control−RLUnegative control))*100. The IC50 value was then calculated by Graphpad 8.0 software using Y=Bottom+(Top−Bottom)/(1+10^((LogIC50−X)*HillSlope)).

Flpin-293-PDE4B2 cells = Flpin-293-PDE4B2 cells (Homo sapiens, UniProt Q07343); assay: cell-based; conditions: for inhibition at 0.001 µM: read-out: Cell Inhibition % @1 nM, 1 nM, Flpin-293-PDE4B2 cells; for inhibition at 0.01 µM: read-out: Cell Inhibition % @10 nM, 10 nM, Flpin-293-PDE4B2 cells; for inhibition at 0.1 µM: read-out: Cell Inhibition % @100 nM, 100 nM, Flpin-293-PDE4B2 cells
Protocol: All compounds were dissolved in DMSO into 10 mM or 20 mM stock solutions. The compound to be tested was diluted with DMSO with a 3-fold gradient. […] 40 nL/well of the compound or a DMSO control was transferred to a 384-well plate by using Echo 550 instrument. […] The plate was incubated at 37° C. for 30 minutes. Eu-cAMP tracer and Ulight-anti-cAMP were frozen and thawed and diluted in a lysis buffer. 10 of μl Eu-cAMP tracer was added to an experimental well, and 10 μl of Ulight-anti-cAMP was added to the experimental well. The reaction plate was centrifuged at 200 g at room temperature for 30 s and then left to stand at 25° C. for 1 h, and data was then collected by Envision. Inhibition %=100−(Signal compound−SignalAve positive control)/(SignalAve negative control−SignalAve positive control)×100.

PDE4B2 = PDE4B2 (Homo sapiens, UniProt Q07343); conditions: read-out: PDE4B2 IC50; enzyme assay
PDE4B2, sequence (Q07343 1-564 isoform Q07343-2, species assumed): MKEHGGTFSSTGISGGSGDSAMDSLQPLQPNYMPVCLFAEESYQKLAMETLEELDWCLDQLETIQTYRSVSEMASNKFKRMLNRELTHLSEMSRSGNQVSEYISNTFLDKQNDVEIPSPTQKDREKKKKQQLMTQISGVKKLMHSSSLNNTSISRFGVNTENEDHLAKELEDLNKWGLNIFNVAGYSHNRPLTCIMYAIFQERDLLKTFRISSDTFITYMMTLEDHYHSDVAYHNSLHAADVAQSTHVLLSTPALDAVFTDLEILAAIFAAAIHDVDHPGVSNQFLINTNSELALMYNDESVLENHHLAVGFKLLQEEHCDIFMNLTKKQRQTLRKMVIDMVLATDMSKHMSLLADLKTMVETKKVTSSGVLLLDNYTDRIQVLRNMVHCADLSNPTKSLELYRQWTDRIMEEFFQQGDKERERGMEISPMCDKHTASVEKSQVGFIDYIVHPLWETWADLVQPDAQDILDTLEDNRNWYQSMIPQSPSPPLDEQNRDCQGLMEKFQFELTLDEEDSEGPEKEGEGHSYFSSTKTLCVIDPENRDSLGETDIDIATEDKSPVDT
Protocol: as §1

PDE4D2, sequence (Q08499 303-809 limits assumed): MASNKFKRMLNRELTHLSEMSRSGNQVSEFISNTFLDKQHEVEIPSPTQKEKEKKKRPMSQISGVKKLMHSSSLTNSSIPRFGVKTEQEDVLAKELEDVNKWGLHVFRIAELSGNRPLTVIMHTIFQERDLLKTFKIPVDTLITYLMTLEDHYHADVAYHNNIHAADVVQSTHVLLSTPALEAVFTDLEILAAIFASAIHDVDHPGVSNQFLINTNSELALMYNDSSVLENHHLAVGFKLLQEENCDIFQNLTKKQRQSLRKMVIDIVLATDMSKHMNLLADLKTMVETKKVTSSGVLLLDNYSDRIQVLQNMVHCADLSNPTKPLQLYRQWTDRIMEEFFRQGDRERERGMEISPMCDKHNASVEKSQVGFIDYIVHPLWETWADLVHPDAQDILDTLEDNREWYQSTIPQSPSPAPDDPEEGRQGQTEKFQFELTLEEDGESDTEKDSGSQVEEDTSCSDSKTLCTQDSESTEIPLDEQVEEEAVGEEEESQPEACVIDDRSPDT
Flpin-293-PDE4B2 cells, sequence (Q07343 1-564 isoform Q07343-2): as the sequence (Q07343 1-564 isoform Q07343-2, species assumed) above

| SMILES | IC50 (PDE4D2) [nM] | inhibition at 0.001 µM (Flpin-293-PDE4B2 cells) [%] | inhibition at 0.01 µM (Flpin-293-PDE4B2 cells) [%] | inhibition at 0.1 µM (Flpin-293-PDE4B2 cells) [%] | IC50 (PDE4B2) [nM] |
| --- | --- | --- | --- | --- | --- |
| [O-][S+]1CCc2nc(N3CCc4cc(N5CC6CC6C5)ccc4C3)nc(NC3(CO)CCC3)c21 (stereo not shown) [Compound 145] | 0.985 | 4.25 | 36 | 95.9 | 0.245 |
| CN(C)C1CCN(c2ccc3c(c2)CCN(c2nc4c(c(NC5(CO)CCC5)n2)[S+]([O-])CC4)C3)C1 (stereo not shown) [Compound 148] | 1.1 | 3.99 | 37.3 | 92.1 | 0.7 |
| [O-][S+]1CCc2nc(N3CCc4cc(N5CCC(F)C5)ccc4C3)nc(NC3(CO)CCC3)c21 (stereo not shown) [Compound 149] | 1.08 | 5.99 | 38.3 | 96 | 0.43 |
| [O-][S+]1CCc2nc(N3CCc4cc(N5CC[C@@H](F)C5)ccc4C3)nc(NC3(CO)CCC3)c21 (stereo partly shown) [Compound 150] | 0.694 | 11.8 | 49.6 | 97.5 | 0.418 |
| CO[C@H]1CCN(c2ccc3c(c2)CCN(c2nc4c(c(NC5(CO)CCC5)n2)[S+]([O-])CC4)C3)C1 (stereo partly shown) [Compound 151] | 0.655 | 7.66 | 56.5 | 99.1 | 0.298 |
| CO[C@@H]1CCN(c2ccc3c(c2)CCN(c2nc4c(c(NC5(CO)CCC5)n2)[S+]([O-])CC4)C3)C1 (stereo partly shown) [Compound 152] | 0.748 | 16.1 | 66 | 99.2 | 0.426 |
| [O-][S+]1CCc2nc(N3CCc4cc(N5C[C@H]6C[C@@H]5CO6)ccc4C3)nc(NC3(CO)CCC3)c21 (stereo partly shown) [Compound 153] | 0.52 | 10.2 | 76.8 | 99.9 | 0.182 |
| [O-][S+]1CCc2nc(N3CCc4cc(N5CC6COCC6C5)ccc4C3)nc(NC3(CO)CCC3)c21 (stereo not shown) [Compound 154] | 0.279 | 26.5 | 91 | 99.7 | 0.138 |
| [O-][S+]1CCc2nc(N3CCc4cc(N5CCC(C(F)(F)F)C5)ccc4C3)nc(NC3(CO)CCC3)c21 (stereo not shown) [Compound 156] | 1.76 | 1.42 | 25.7 | 91.7 | 1.26 |
| N#CC1CCN(c2ccc3c(c2)CCN(c2nc4c(c(NC5(CO)CCC5)n2)[S+]([O-])CC4)C3)C1 (stereo not shown) [Compound 159] | 0.389 | 16.8 | 73.4 | 99.6 | 0.224 |
| [O-][S+]1CCc2nc(N3CCc4cc(N5CC6C(C5)C6(F)F)ccc4C3)nc(NC3(CO)CCC3)c21 (stereo not shown) [Compound 161] | 0.824 | 3.1 | 37.3 | 96.3 | 0.67 |
| CN1C[C@@H]2CCN(c3ccc4c(c3)CCN(c3nc5c(c(NC6(CO)CCC6)n3)[S+]([O-])CC5)C4)[C@@H]2C1 (stereo partly shown) [Compound 162] | 0.584 | 10.7 | 52.8 | 93.8 | 0.589 |
| O=S1(=O)C[C@H]2C[C@@H]1CN2c1ccc2c(c1)CCN(c1nc3c(c(NC4(CO)CCC4)n1)[S+]([O-])CC3)C2 (stereo partly shown) [Compound 163] | 0.3 | 11.9 | 56.7 | 96.7 | 0.17 |
| [O-][S+]1CCc2nc(N3CCc4cc(N5CCC6(COC6)C5)ccc4C3)nc(NC3(CO)CCC3)c21 (stereo not shown) [Compound 165] | 0.398 | 10.3 | 76.8 | 99.9 | 0.351 |
| [O-][S+]1CCc2nc(N3CCc4cc(N5CCC6(CC5)COC6)ccc4C3)nc(NC3(CO)CCC3)c21 (stereo not shown) [Compound 166] | 0.453 | 9.23 | 61.6 | 98.2 | 0.457 |
| Cn1cc(Nc2nc(N3CCc4cc(N5CCCC5)ccc4C3)nc3c2[S+]([O-])CC3)cn1 (stereo not shown) [Compound 168] | 0.561 | 6.54 | 46.9 | 98.6 | 0.108 |
| CN1CCN(c2ccc3c(c2)CCN(c2nc4c(c(NC5(CO)CCC5)n2)[S+]([O-])CC4)C3)CC1 (stereo not shown) [Compound 170] | 1.29 | 1.97 | 26.7 | 86.9 | 0.729 |
| CC(C)(O)[C@@H]1CCN(c2ccc3c(c2)CCN(c2nc4c(c(NC5(CO)CCC5)n2)[S+]([O-])CC4)C3)C1 (stereo partly shown) [Compound 173] | 0.391 | 8.43 | 65.7 | 99.5 | 0.386 |
| CC1(O)CCN(c2ccc3c(c2)CCN(c2nc4c(c(NC5(CO)CCC5)n2)[S+]([O-])CC4)C3)C1 (stereo not shown) [Compound 175] | 0.603 | 6.9 | 59.4 | 98.4 | 0.299 |
| C[C@H]1CCN1c1ccc2c(c1)CCN(c1nc3c(c(NC4(CO)CCC4)n1)[S+]([O-])CC3)C2 (stereo partly shown) [Compound 176] | 0.716 | 6.1 | 51.5 | 97.8 | 0.607 |
| [O-][S+]1CCc2nc(N3CCc4cc(N5CC6CC5C6)ccc4C3)nc(NC3(CO)CCC3)c21 (stereo not shown) [Compound 177] | 0.502 | 7.25 | 53.3 | 98.6 | 0.508 |
| CN1CC2CN(c3ccc4c(c3)CCN(c3nc5c(c(NC6(CO)CCC6)n3)[S+]([O-])CC5)C4)CC2C1 (stereo not shown) [Compound 179] | 0.46 | 9.95 | 51.5 | 92.2 | 0.502 |
| CN1C[C@@H](Nc2nc(N3CCc4cc(N5CCCC5)ccc4C3)nc3c2[S+]([O-])CC3)CCC1=O (stereo partly shown) [Compound 185] | 0.0263 | 75.3 | 100 | 101 | 0.0251 |
| [O-][S+]1CCc2nc(N3CCc4cc(N5CCCC5)ccc4C3)nc(NC3(CO)CC3)c21 (stereo not shown) [Compound 186] | 0.155 | 24.7 | 93.2 | 101 | 0.0646 |
| O=S1(=O)CCC(Nc2nc(N3CCc4cc(N5CCCC5)ccc4C3)nc3c2[S+]([O-])CC3)CC1 (stereo not shown) [Compound 187] | 0.116 | 25.3 | 93.8 | 101 | 0.45 |
| [O-][S+]1CCc2nc(N3CCc4cc(N5CCCC5)ccc4C3)nc(N3CCC[C@H]3CO)c21 (stereo partly shown) [Compound 188] | 0.73 | 8.72 | 39.6 | 96.6 | 0.387 |
| [O-][S+]1CCc2nc(N3CCc4cc(N5CCCC5)ccc4C3)nc(NC3CCOCC3)c21 (stereo not shown) [Compound 189] | 0.145 | 24.4 | 93.5 | 101 | 0.066 |
| Cn1cc(CNc2nc(N3CCc4cc(N5CCCC5)ccc4C3)nc3c2[S+]([O-])CC3)cn1 (stereo not shown) [Compound 190] | 0.572 | 3.93 | 47.1 | 96.7 | 0.168 |
| [O-][S+]1CCc2nc(N3CCc4cc(N5CCCC5)ccc4C3)nc(Nc3cnn(CCO)c3)c21 (stereo not shown) [Compound 191] | 0.851 | 8.9 | 35.2 | 94.3 | 0.182 |
